From patent US12029730B2, “Pharmaceutical composition for preventing or treating cancer, containing N-1H-benzimidazol-2-yl-3-(1H-pyrrole-1-yl)benzamide as active ingredient” (KOREA INSTITUTE OF RADIOLOGICAL & MEDICAL SCIENCES, priority 2018, dated 2024)

What was measured:
MASTL kinase = biological target: T1, MASTL kinase (Homo sapiens, UniProt Q96GX5); assay: In vitro MASTL kinase analysis, immunoblotting for phosphorylated ENSA; type: biochemical; conditions: western blot, 50 μM or more, FIG. 3
T1 construct: GST; purchased Thermo Fisher Scientific
T1 sequence (Q96GX5 1-879): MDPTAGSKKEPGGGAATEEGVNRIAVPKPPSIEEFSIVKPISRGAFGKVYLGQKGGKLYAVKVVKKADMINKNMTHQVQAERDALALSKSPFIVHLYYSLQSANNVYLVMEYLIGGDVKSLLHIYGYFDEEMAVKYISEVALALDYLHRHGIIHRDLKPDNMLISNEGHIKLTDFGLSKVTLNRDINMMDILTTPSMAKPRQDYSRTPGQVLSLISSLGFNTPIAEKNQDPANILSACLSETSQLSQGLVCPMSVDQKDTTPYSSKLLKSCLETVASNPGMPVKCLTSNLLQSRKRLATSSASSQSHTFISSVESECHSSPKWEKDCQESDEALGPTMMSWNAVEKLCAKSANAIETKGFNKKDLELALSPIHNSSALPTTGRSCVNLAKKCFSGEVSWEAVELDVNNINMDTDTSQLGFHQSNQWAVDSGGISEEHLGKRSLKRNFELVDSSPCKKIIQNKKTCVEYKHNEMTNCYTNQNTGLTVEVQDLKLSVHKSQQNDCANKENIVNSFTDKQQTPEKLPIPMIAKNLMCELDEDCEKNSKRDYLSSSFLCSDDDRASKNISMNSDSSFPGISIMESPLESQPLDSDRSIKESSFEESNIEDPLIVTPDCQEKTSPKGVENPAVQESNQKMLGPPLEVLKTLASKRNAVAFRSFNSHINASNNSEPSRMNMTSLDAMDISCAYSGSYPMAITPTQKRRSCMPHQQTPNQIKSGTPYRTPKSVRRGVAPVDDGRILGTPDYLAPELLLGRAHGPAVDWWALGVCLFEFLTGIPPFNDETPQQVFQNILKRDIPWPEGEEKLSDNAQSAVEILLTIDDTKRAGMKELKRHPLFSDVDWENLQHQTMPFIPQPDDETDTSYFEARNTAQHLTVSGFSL
Experimental: The MASTL kinase analysis in vitro was performed by reacting recombinant GST-tagged-MASTL (Thermo Fisher Scientific, Waltham, MA, USA) and his-tagged-ENSA (Sino Biological Inc., Beijing, China) proteins or immunoprecipitated proteins derived from MCF7 cells with the MASTL antibody (AP7147d; Abgent, CA, USA) in a kinase buffer consisting of 100 mM Tris-HCl (pH 7.5), 30 mM MgCl2, 2 mM DTT, 1 mM EDTA and 10 μM ultrapure ATP. The reaction proceeded, and then stopped by treating with SDS-loading buffer. In this experiment, the multi-AGC kinase inhibitor AT13148 was used as a positive control. The reaction was analyzed by performing immunoblotting for phosphorylated ENSA, and the results of the analysis were shown in FIG. 1B, and the results of the experiments confirming the cell survival and the kinase inhibitor activity were shown in FIG. 1C.
A protein kinase analysis was performed using the ADP-Glo™ kinase assay kit according to the standard protocol provided by Promega. […] Then, the reacted product was transferred to a 384-well white plate, and […] was read using a SpectraMax i3× Multi-Mode Microplate Reader (Molecular Devices), and GKI-1, N-(4-chlorophenyl)-3-(1H-pyrazol-4-yl)aniline and AT13148 were used as positive controls. The effect of inhibiting kinase activity of GKI-1 and MKI-1 and its IC50 confirmed through the reading result were shown in FIG. 2. […]

[1] = test system: MASTL kinase (phosphorylated ENSA); assay: Immunofluorescence staining of phosphorylated ENSA (Ser67)/ARPP19 (ser62) in MCF7; type: cell-based, human; conditions: with Colcemid 16 to 18 hours, FIG. 4
Experimental: After culturing 2.5×10^4 MCF7 cells in a 6-well plate for 24 hours, 80 ng/mL of a MASTL kinase inhibitor and a cell cycle control agent Colcemid (KaryoMAX™ Colcemid™ Solution in PBS; Gibco) were treated for 16 to 18 hours. After washing with phosphate buffered saline for fixation and permeabilization of cells, 4% paraformaldehyde and 0.2% Triton-X were added and reacted for 10 minutes, respectively. After 1 hour pretreatment with 5% fetal bovine serum, 1:100 diluted antibody against phosphorylated ENSA (Ser67)/ARPP19 (ser62) was treated for 16 hours, and then it was washed with 0.1% Triton X-100/phosphate buffered saline solution (Tritonx-100/PBS) 3 times. Alexa488-conjugated secondary antibody (AP132JA4, Invitrogen) was reacted for 2 hours at room temperature to label, and phosphorylated ENSA was photographed and analyzed using IN Cell Analyzer 6000 (GE Healthcare Life Science).

MASTL kinase (p-ENSA) = assay: Western blotting of phosphorylated ENSA in MCF7 cells; type: cell-based, human; conditions: western blot, FIG. 5
Experimental: (§1) 20 μg of protein was separated by SDS-PAGE electrophoresis and transferred to a PVDF membrane, and the following specific antibodies were used: rabbit polyclonal antibody MASTL (Abgent); phospho-ENSA (Ser67)/ARPP19 (Ser62) (#5240), ENSA (#11915S), cleaved PARP (Asp214) (#9541), AKT (#9272), phospho-AKT (ser473) (#9271), phospho-GSK-3α/β (Ser21/9) (#9331), phospho-p70S6K (The 288) (#9205) and phospho-Chk2 (Thr68) (#2661; Cell Signaling Technology, MA); p70S6K (sc-230; Santa Cruz Biotechnology, CA, USA), phospho-H3 (S10) (06-570, Merck, NJ); mouse monoclonal antibody caspase-2 (#2224S). In addition, mouse […] antibody β-actin (C4; Santa Cruz Biotechnology, CA, USA) was used as a loading control, it was washed with 1×PBS/0.1% Tween 20, and the binding protein was detected using HRP-binding secondary antibody and improved chemiluminescence detection system. The remaining conditions of Western blotting were the same as in Example 3, and the image of the band was obtained by Amersham Imager 600 system (GE Healthcare Life Science) or X-Ray film (AG, HealthCare, SC, USA) and it was shown in FIG. 5.

AKT = assay: Western blotting of AKT and GSK-3 phosphorylation in MCF7 cells; type: cell-based, human; conditions: western blot, FIG. 5
Experimental: as §1

SMILES: O=C(Nc1nc2ccccc2[nH]1)c1cccc(-n2cccc2)c1 [MKI-1, N-1H-benzimidazol-2-yl-3-(1H-pyrrol-1-yl) benzamide]
- ENSA phosphorylation (p-ENSA) in vitro (MASTL kinase): p-ENSA did not appear
- phosphorylation of ENSA in MCF7 relative to DMSO [1]: close to about half of that of DMSO
- expression level of phosphorylated p-ENSA (MASTL kinase (p-ENSA)): reduced the expression level of phosphorylated p-ENSA in MCF7 cells in a dose-dependent manner
- activation of AKT / phosphorylated GSK-3 (AKT): did not regulate the activities of AKT and phosphorylated GSK-3P
